# Measurements: patent US6806230B1, “Pyrimidine derivatives and herbicides containing them” (Kumiai Chemical Industry Co., Ltd., priority 1999, dated 2004)
# Columns and labels:
# Assay type in all cases: in vivo
# [1] = tested on: barnyard grass (Eo); test: Test Example 1: herbicidal effects by flooded paddy field treatment; design: herbicidal effects, Eo (barnyard grass):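 0-5 growth inhibition grade; 5 = over 90%; 4 = 70-90%; 3 = 50-70%; 2 = 30-50%; 1 = 10-30%; 0 = under 10%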; details: for herbicidal effects, Eo (barnyard grass): dose 100 g active ingredient per 10 ares, examined on the 21st day after treatment, standards of Table 44; for Herbicidal effect index, Eo: dose 100 gai/10a, examined on 21st day after treatment, index 0-5 per Table 44;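 on Herbicidal effect index, Eo: 0-5 growth inhibition grade; 5 = over 90%; 4 = 70-90%; 3 = 50-70%; 2 = 30-50%; 1 = 10-30%; 0 = under 10%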
# Method: (§1) In a 100 cm^2 plastic pot, paddy field soil was filled and paddled. Then, seeds of barnyard grass (Eo) and monochoria (Mo) were sown, and water was introduced to a depth of 3 cm. Next day, a wettable powder prepared in accordance with Formulation Example 1 was diluted with water and dropwise applied to the water surface. The dose was 100 g of the active ingredient per 10 ares. Thereafter, cultivation was carried out in a green house, and on the 21st day after the treatment, the herbicidal effects were examined in accordance with the standards as identified in Table 44.
# [2] = tested on: monochoria (Mo); test: as above; design: herbicidal effects, Mo (monochoria):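 0-5 growth inhibition grade; 5 = over 90%; 4 = 70-90%; 3 = 50-70%; 2 = 30-50%; 1 = 10-30%; 0 = under 10%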; details: for herbicidal effects, Mo (monochoria): dose 100 g active ingredient per 10 ares, examined on the 21st day after treatment, standards of Table 44; for Herbicidal effect index, Mo: dose 100 gai/10a, examined on 21st day after treatment, index 0-5 per Table 44
# Method: as §1
# [3] = tested on: barnyard grass (Eo); test: Test Example 4: selectivity for a crop plant by flooded paddy field treatment; design: scale not given here; details: for Eo (herbicidal effect index): barnyard grass, dose 25 gai/10a, 21st day after treatment, index per Table 44; for Eo (herbicidal effects, index): dose 25 g active ingredient per 10 ares, examined on the 21st day after treatment
# Method: as §1, with “pot, a” for “pot,”, “sown, and rice (Or) of second leaf stage was transplanted,” for “sown,”, “was 25” for “was 100”, “standards of” for “standards as identified in”
# [4] = tested on: monochoria (Mo); test: as above; design: scale not given here; details: for Mo (herbicidal effect index): monochoria, dose 25 gai/10a, 21st day after treatment, index per Table 44; for Mo (herbicidal effects, index): dose 25 g active ingredient per 10 ares, examined on the 21st day after treatment
# Method: as §1, with “pot, a” for “pot,”, “sown, and rice (Or) of second leaf stage was transplanted,” for “sown,”, “was 25” for “was 100”, “standards of” for “standards as identified in”
# [5] = tested on: rice (Or); test: as above; design: scale not given here; details: rice transplanted at second leaf stage; for Or (herbicidal effect index on crop): dose 25 gai/10a, 21st day after treatment, index per Table 44; for Or (effect on crop plant rice, index): dose 25 g active ingredient per 10 ares, examined on the 21st day after treatment
# Method: as §1, with “pot, a” for “pot,”, “sown, and rice (Or) of second leaf stage was transplanted,” for “sown,”, “was 25” for “was 100”, “standards of” for “standards as identified in”
# [6] = tested on: barnyard grass (Ec); test: Test Example 2: herbicidal effects by upland soil treatment; design: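 0-5 growth inhibition grade; 5 = over 90%; 4 = 70-90%; 3 = 50-70%; 2 = 30-50%; 1 = 10-30%; 0 = under 10%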; details: dose 100 g active ingredient per 10 ares, examined on the 21st day after treatment
# Method: In a 80 cm^2 plastic pot, upland soil was filled, and seeds of barnyard grass (Ec) and green foxtail (Se) were sown and covered with soil. A wettable powder prepared in accordance with Formulation Example 1 was diluted with water and uniformly applied to the soil surface by means of a small size spray at a rate of 100 l per 10 ares, so that the dose of the active ingredient would be 100 g per 10 ares. Thereafter, cultivation was carried out in a green house, and on the 21st day after the treatment, the herbicidal effects were examined in accordance with the standards as identified in Table 44.
# 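Wherever Herbicidal effect index, Mo is given: 0-5 growth inhibition grade; 5 = over 90%; 4 = 70-90%; 3 = 50-70%; 2 = 30-50%; 1 = 10-30%; 0 = under 10%.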
structure (smiles),measurement,setting,value
Cc1ccc(C(C)(C)C(=O)N(C)C(c2cncnc2C(F)(F)F)C(C)C)cc1 (racemic) [1-175],"herbicidal effects, Eo (barnyard grass)",[1],5
same,"herbicidal effects, Mo (monochoria)",[2],5
same,Eo (herbicidal effect index),[3],5
same,Mo (herbicidal effect index),[4],5
same,Or (herbicidal effect index on crop),[5],0
CC(C)C(c1cncnc1C(F)(F)F)N(C)C(=O)CSc1ccc(Cl)cc1 (racemic) [1-183],"herbicidal effects, Eo (barnyard grass)",[1],5
same,"herbicidal effects, Mo (monochoria)",[2],5
same,Eo (herbicidal effect index),[3],5
same,Mo (herbicidal effect index),[4],5
same,Or (herbicidal effect index on crop),[5],0
CC(c1cncnc1C(C)(C)C)N(C)C(=O)Cc1ccccc1 (racemic) [1-188],"herbicidal effects, Eo (barnyard grass)",[1],5
same,"herbicidal effects, Mo (monochoria)",[2],5
same,Eo (herbicidal effect index),[3],5
same,Mo (herbicidal effect index),[4],5
same,Or (herbicidal effect index on crop),[5],0
CC(c1cncnc1C(C)(C)C)N(C)C(=O)Cc1ccc(F)cc1 (racemic) [1-189],"herbicidal effects, Eo (barnyard grass)",[1],5
same,"herbicidal effects, Mo (monochoria)",[2],5
same,Eo (herbicidal effect index),[3],5
same,Mo (herbicidal effect index),[4],5
same,Or (herbicidal effect index on crop),[5],0
CN(C(=O)Cc1ccc(F)cc1)C(c1cccs1)c1cncnc1C(F)(F)F (racemic) [1-234],"herbicidal effects, Eo (barnyard grass)",[1],5
same,"herbicidal effects, Mo (monochoria)",[2],5
same,"Ec (herbicidal effects, index)",[6],5
same,Eo (herbicidal effect index),[3],5
same,Mo (herbicidal effect index),[4],5
same,Or (herbicidal effect index on crop),[5],1
CC(C)C(c1cncnc1-c1ccccc1)N(C)C(=O)Cc1ccc(Cl)cc1 (racemic) [1-324],"herbicidal effects, Eo (barnyard grass)",[1],5
same,"herbicidal effects, Mo (monochoria)",[2],5
same,Eo (herbicidal effect index),[3],5
same,Mo (herbicidal effect index),[4],5
same,Or (herbicidal effect index on crop),[5],1
Cc1ccc(CC(=O)N(C)C(c2cncnc2-c2ccccc2)C(C)C)cc1 (racemic) [1-325],"herbicidal effects, Eo (barnyard grass)",[1],5
same,"herbicidal effects, Mo (monochoria)",[2],5
same,Eo (herbicidal effect index),[3],5
same,Mo (herbicidal effect index),[4],5
same,Or (herbicidal effect index on crop),[5],1
COc1ccc(C(c2cncnc2C(F)(F)F)N(C)C(=O)Cc2ccc(C)cc2)cc1 (racemic) [1-487],"herbicidal effects, Eo (barnyard grass)",[1],5
same,"herbicidal effects, Mo (monochoria)",[2],5
same,Eo (herbicidal effect index),[3],5
same,Mo (herbicidal effect index),[4],5
same,Or (herbicidal effect index on crop),[5],1
COc1ccccc1C(c1cncnc1C(F)(F)F)N(C)C(=O)Cc1ccc(C)cc1 (racemic) [1-491],"herbicidal effects, Eo (barnyard grass)",[1],5
same,"herbicidal effects, Mo (monochoria)",[2],5
same,Eo (herbicidal effect index),[3],5
same,Mo (herbicidal effect index),[4],5
same,Or (herbicidal effect index on crop),[5],0
C#CCN(C(=O)Cc1ccc(Cl)cc1F)C(c1cncnc1C(F)(F)F)C(C)C (racemic) [1-615],"herbicidal effects, Eo (barnyard grass)",[1],5
same,"herbicidal effects, Mo (monochoria)",[2],5
same,Eo (herbicidal effect index),[3],5
same,Mo (herbicidal effect index),[4],5
same,Or (herbicidal effect index on crop),[5],1
CN(C(=O)Cc1ccc(Cl)s1)C(c1cncnc1C(F)(F)F)C(C)(C)C (racemic) [2-42],"herbicidal effects, Eo (barnyard grass)",[1],5
same,"herbicidal effects, Mo (monochoria)",[2],5
same,Eo (herbicidal effect index),[3],5
same,Mo (herbicidal effect index),[4],5
same,Or (herbicidal effect index on crop),[5],0
CC(C)C(c1cncnc1C(F)(F)F)N(C)C(=O)COc1nc2ccccc2s1 (racemic) [2-48],"herbicidal effects, Eo (barnyard grass)",[1],5
same,"herbicidal effects, Mo (monochoria)",[2],5
same,Eo (herbicidal effect index),[3],5
same,Mo (herbicidal effect index),[4],5
same,Or (herbicidal effect index on crop),[5],1
O=C(Cc1ccc(C(F)(F)F)cc1)NC(c1cncnc1C(F)(F)Cl)C1CC1 (racemic) [Compound 1-4],"Herbicidal effect index, Eo",[1],5
same,"Herbicidal effect index, Mo",[2],5
same,"Eo (herbicidal effects, index)",[3],5
same,"Mo (herbicidal effects, index)",[4],4
same,"Or (effect on crop plant rice, index)",[5],1
COc1ccc(SC(=O)N(C)C(c2cncnc2C(F)(F)Cl)C(C)C)cc1 (racemic) [Compound 1-18],"Herbicidal effect index, Eo",[1],5
same,"Herbicidal effect index, Mo",[2],5
same,"Eo (herbicidal effects, index)",[3],5
same,"Mo (herbicidal effects, index)",[4],4
same,"Or (effect on crop plant rice, index)",[5],1
CC(C)C(c1cncnc1C(F)(F)F)N(C)C(=O)Cc1cccc(C(F)(F)F)c1 (racemic) [Compound 1-39],"Herbicidal effect index, Eo",[1],5
same,"Herbicidal effect index, Mo",[2],5
same,"Eo (herbicidal effects, index)",[3],5
same,"Mo (herbicidal effects, index)",[4],5
same,"Or (effect on crop plant rice, index)",[5],0
CC(C)C(c1cncnc1C(F)(F)F)N(C)C(=O)Cc1ccc(C(C)(C)C)cc1 (racemic) [Compound 1-43],"Herbicidal effect index, Eo",[1],5
same,"Herbicidal effect index, Mo",[2],5
same,"Eo (herbicidal effects, index)",[3],5
same,"Mo (herbicidal effects, index)",[4],5
same,"Or (effect on crop plant rice, index)",[5],1
CSc1ccc(CC(=O)N(C)C(c2cncnc2C(F)(F)F)C(C)C)cc1 (racemic) [Compound 1-44],"Herbicidal effect index, Eo",[1],5
same,"Herbicidal effect index, Mo",[2],5
same,"Eo (herbicidal effects, index)",[3],5
same,"Mo (herbicidal effects, index)",[4],5
same,"Or (effect on crop plant rice, index)",[5],0
Cc1ccc(CC(=O)N(C2CC2)C(c2cncnc2C(F)(F)F)C(C)C)cc1 (racemic) [Compound 1-82],"Herbicidal effect index, Eo",[1],5
same,"Herbicidal effect index, Mo",[2],5
same,"Eo (herbicidal effects, index)",[3],5
same,"Mo (herbicidal effects, index)",[4],5
same,"Or (effect on crop plant rice, index)",[5],0
CC(C)C(c1cncnc1C(F)(F)F)N(C)C(=O)C=Cc1ccc(Cl)cc1 (racemic) [Compound 1-86],"Herbicidal effect index, Eo",[1],5
same,"Herbicidal effect index, Mo",[2],5
same,"Eo (herbicidal effects, index)",[3],5
same,"Mo (herbicidal effects, index)",[4],5
same,"Or (effect on crop plant rice, index)",[5],0
Cc1ccc(CC(=O)N(C)C(c2cncnc2C(F)(F)Cl)C2CC2)cc1 (racemic) [Compound 1-93],"Herbicidal effect index, Eo",[1],5
same,"Herbicidal effect index, Mo",[2],5
same,"Eo (herbicidal effects, index)",[3],5
same,"Mo (herbicidal effects, index)",[4],5
same,"Or (effect on crop plant rice, index)",[5],0
CC(C)C(c1cncnc1C(F)(F)F)N(C)C(=O)Cc1ccc(S(C)(=O)=O)cc1 (racemic) [Compound 1-104],"Herbicidal effect index, Eo",[1],5
same,"Herbicidal effect index, Mo",[2],5
same,Eo (herbicidal effect index),[3],5
same,Mo (herbicidal effect index),[4],5
same,Or (herbicidal effect index on crop),[5],1
CC(C)C(c1cncnc1C(F)(F)F)N(C)C(=O)COc1ccccc1Cl (racemic) [Compound 1-132],"herbicidal effects, Eo (barnyard grass)",[1],5
same,"herbicidal effects, Mo (monochoria)",[2],5
same,Eo (herbicidal effect index),[3],5
same,Mo (herbicidal effect index),[4],5
same,Or (herbicidal effect index on crop),[5],0
"COC(=O)c1ncncc1C(C(C)C)N(C)C(=O)C(C)c1ccc(Cl)cc1 (single isomer, unassigned) [1-593]","herbicidal effects, Eo (barnyard grass)",[1],5
same,"herbicidal effects, Mo (monochoria)",[2],5
same,Eo (herbicidal effect index),[3],5
same,Mo (herbicidal effect index),[4],4
same,Or (herbicidal effect index on crop),[5],0
